Assay results from article PMC10238386, “Serine ADP-ribosylation in Drosophila provides insights into the evolution of reversible ADP-ribosylation signalling” (Nature Communications, 2023).

What was measured:
hPARP1 [1] = target: T1, hPARP1 (Homo sapiens, UniProt P09874, E988Q); experiment: […] auto-mono-ADP-ribosylation, SDS-PAGE autoradiography; assay type: biochemical; conditions: labelled compound (32P-NAD+); 50 µM NAD+, activated DNA, 2 mM MgCl2, pH 8, room temperature; no HPF1
T1 construct: gene PARP1

hPARP1 [2] = target: T2, hPARP1 (Homo sapiens, UniProt P09874); experiment: […] auto-ADP-ribosylation (poly-Glu), SDS-PAGE autoradiography; assay type: biochemical; conditions: labelled compound (32P-NAD+); 50 µM NAD+, activated DNA, 2 mM MgCl2, pH 8, room temperature; no HPF1
T2 construct: gene PARP1
T2 sequence (P09874 2-1014): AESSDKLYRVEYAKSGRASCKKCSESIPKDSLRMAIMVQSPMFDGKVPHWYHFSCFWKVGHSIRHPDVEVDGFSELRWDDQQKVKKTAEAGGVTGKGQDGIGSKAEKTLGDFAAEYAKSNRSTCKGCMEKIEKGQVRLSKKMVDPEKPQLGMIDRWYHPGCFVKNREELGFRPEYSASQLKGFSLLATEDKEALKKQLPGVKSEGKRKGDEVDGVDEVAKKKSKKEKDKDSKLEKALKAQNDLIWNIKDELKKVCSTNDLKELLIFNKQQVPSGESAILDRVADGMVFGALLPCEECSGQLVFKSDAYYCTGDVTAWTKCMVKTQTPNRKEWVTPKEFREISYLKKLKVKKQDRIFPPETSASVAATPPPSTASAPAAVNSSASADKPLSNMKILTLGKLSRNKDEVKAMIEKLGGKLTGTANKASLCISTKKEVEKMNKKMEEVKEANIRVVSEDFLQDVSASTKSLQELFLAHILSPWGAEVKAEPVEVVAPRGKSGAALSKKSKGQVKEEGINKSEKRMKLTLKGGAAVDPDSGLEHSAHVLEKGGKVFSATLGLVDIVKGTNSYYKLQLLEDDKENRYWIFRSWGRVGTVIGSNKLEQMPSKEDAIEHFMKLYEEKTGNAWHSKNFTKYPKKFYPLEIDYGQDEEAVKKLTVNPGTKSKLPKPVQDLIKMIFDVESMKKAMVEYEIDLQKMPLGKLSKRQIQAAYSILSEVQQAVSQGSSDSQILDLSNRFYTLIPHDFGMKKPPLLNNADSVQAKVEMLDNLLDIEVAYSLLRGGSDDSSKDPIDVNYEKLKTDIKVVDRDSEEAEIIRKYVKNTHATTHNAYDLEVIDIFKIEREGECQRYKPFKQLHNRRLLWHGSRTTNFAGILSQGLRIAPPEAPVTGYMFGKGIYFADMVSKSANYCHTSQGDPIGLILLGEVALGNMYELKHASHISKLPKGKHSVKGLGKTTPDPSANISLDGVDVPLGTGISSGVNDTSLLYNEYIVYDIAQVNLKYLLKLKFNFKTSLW

T1 sequence (P09874 2-1014 E988Q): as the sequence (P09874 2-1014) above, with E987Q counted along it

NC(=O)c1ccc[n+]([C@@H]2O[C@H](COP(=O)(O)OP(=O)(O)OC[C@H]3O[C@@H](n4cnc5c(N)ncnc54)[C@H](O)[C@@H]3O)[C@@H](O)[C@H]2O)c1 [NAD^+]
32P auto-mono-ADP-ribosylation, SDS-PAGE autoradiography (hPARP1 [1]): we generated the mono-ADPr variants using the hPARP1 E988Q mutant | 32P auto-ADP-ribosylation (poly-Glu), SDS-PAGE autoradiography (hPARP1 [2]): recombinant proteins or peptides were ADP-ribosylated by hPARP1 to produce Glu-ADPr
